Reference: ChEMBL document CHEMBL1134003, “7-Pyrrolidinyl- and 7-piperidinyl-5-aryl-pyrrolo[2,3-d]pyrimidines--potent inhibitors of the tyrosine kinase c-Src” (Bioorg Med Chem Lett, 2001)

What was measured:
[1] = target: Proto-oncogene tyrosine-protein kinase Src (Homo sapiens, UniProt P12931); assay: Inhibition of p60 c-Src tyrosine kinase enzyme activity in liquid-phase tyrosine phosphorylation assay at 830 ng/mL
[2] = target: T1, Epidermal growth factor receptor (Homo sapiens, UniProt P00533); assay: Concentration required for inhibition of epidermal growth factor receptor (EGF-R) by tyrosine kinase enzyme activity
T1 sequence (P00533 whole entry): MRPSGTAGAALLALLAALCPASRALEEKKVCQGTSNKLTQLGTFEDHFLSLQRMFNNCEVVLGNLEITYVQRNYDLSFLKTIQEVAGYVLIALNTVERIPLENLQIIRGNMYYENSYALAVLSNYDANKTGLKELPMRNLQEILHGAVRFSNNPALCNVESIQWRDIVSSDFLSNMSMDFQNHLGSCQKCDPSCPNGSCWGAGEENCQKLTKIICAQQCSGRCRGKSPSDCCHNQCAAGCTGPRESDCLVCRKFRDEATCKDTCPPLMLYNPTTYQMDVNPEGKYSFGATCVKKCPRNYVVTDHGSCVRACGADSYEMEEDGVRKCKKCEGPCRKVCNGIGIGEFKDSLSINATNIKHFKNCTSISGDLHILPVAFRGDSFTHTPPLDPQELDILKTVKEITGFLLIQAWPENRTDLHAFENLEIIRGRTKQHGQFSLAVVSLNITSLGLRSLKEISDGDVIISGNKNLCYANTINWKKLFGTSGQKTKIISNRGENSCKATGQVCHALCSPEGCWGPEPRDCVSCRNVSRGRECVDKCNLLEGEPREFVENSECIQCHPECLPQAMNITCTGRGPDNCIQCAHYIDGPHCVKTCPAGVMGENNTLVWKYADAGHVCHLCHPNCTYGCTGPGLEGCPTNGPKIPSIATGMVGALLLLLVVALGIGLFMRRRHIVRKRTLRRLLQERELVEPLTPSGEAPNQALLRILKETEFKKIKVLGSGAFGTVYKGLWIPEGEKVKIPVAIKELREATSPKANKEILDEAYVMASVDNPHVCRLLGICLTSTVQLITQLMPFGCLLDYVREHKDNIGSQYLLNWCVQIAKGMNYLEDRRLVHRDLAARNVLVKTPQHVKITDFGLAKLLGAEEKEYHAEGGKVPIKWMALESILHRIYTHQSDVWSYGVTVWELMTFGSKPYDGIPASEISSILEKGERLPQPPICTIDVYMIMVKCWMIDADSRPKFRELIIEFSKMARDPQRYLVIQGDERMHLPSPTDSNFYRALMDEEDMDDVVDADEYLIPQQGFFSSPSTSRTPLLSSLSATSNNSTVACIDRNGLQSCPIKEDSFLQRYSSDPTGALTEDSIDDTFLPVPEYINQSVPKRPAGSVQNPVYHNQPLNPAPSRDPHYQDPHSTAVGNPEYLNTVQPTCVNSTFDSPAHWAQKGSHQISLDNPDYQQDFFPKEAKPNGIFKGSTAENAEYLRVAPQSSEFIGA

[3] = target: Proto-oncogene tyrosine-protein kinase Src (Gallus gallus, UniProt P00523); assay: Concentration required for inhibition of c-Src mediated phosphorylation of Fak in IC8.1 fibroblast cell assay; type: functional, cell-based
[4] = target: T2, Tyrosine-protein kinase ABL (Homo sapiens, UniProt P00519+P42684)
Description: Concentration required for inhibition of v-Abl receptor by tyrosine kinase enzyme assay

[5] = target: T1, Epidermal growth factor receptor; assay: Inhibition of autophosphorylation of epidermal growth factor receptor (EGF-R) in a cellular assay
[6] = target: T1, Epidermal growth factor receptor; assay: Inhibition of epidermal growth factor receptor (EGF-R)
[7] = target: T2, Tyrosine-protein kinase ABL; assay: Inhibition of v-Abl receptor tyrosine kinase enzyme activity; type: protein assay

Sequence of Proto-oncogene tyrosine-protein kinase Src (Homo sapiens, UniProt P12931) (P12931 2-536 limits assumed): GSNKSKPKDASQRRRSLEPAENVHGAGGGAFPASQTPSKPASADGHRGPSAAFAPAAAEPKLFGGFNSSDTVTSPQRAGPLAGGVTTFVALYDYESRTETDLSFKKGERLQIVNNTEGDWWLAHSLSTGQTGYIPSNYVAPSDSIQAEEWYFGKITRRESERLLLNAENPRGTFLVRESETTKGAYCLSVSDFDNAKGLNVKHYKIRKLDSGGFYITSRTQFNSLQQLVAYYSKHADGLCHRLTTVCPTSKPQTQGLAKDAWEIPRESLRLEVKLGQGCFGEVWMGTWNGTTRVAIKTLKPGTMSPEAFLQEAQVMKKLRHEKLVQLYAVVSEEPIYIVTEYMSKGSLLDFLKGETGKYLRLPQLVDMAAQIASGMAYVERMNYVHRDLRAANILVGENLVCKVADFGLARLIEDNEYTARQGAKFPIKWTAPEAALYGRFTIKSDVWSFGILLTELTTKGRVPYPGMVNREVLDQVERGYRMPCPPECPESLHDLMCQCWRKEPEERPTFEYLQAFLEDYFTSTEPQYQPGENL

Row | Compound | IC50 [1] [nM] | IC50 [2] [nM] | IC50 [3] [nM] | IC50 [4] [nM] | IC50 [5] [nM] | IC50 [6] [nM] | IC50 [7] [nM]
1 | CC(C)(C)OC(=O)N1C[C@H](n2cc(-c3ccccc3)c3c(N)ncnc32)C[C@@H]1CO | 2000 |  |  |  |  |  | 
2 | Nc1ncnc2c1c(-c1ccccc1)cn2[C@H]1CN[C@@H](CO)C1 | 130 |  |  |  |  |  | 
3 | COc1cccc(-c2cn(C3CCN(C(=O)OC(C)(C)C)C3)c3ncnc(N)c23)c1 (stereo not drawn) | 270 | 2100 | 4400 | 2400 |  |  | 
4 | COc1cccc(-c2cn(C3CCN(CCN(C)CCO)CC3)c3ncnc(N)c23)c1 | 6 | 295 | 600 | 360 | 7800 |  | 
5 | Nc1ncnc2c1c(-c1ccccc1)cn2C1CCNC1 (stereo not drawn) | 230 |  |  |  |  |  | 
6 | CC(C)(C)OC(=O)N1CCC(n2cc(-c3cccc(O)c3)c3c(N)ncnc32)C1 (stereo not drawn) | 5 | 2200 | 3100 | 58 | > 10000 |  | 
7 | CC(C)(C)OC(=O)N1C[C@@H](n2cc(-c3ccc(O)cc3)c3c(N)ncnc32)C[C@@H]1CO | 24 |  | 3300 |  |  |  | 
8 | COc1cccc(-c2cn(C3CCN(CC(N)=O)CC3)c3ncnc(N)c23)c1 | 22 | 350 | 700 | 550 |  |  | 
9 | COC(=O)CN1CCC(n2cc(-c3cccc(OC)c3)c3c(N)ncnc32)CC1 | 84 |  | 2800 | 1000 |  |  | 
10 | COc1cccc(-c2cn(C3CCN(CCO)CC3)c3ncnc(N)c23)c1 | 27 | 900 | 1400 | 1030 | > 10000 |  | 
11 | CCOC(=O)C[C@H]1C[C@H](n2cc(-c3ccccc3)c3c(N)ncnc32)CN1C(=O)OC(C)(C)C | 410 |  |  |  |  |  | 
12 | COc1cccc(-c2cn(C3CCNC3)c3ncnc(N)c23)c1 (stereo not drawn) | 53 | 1120 | > 5000 | 1400 |  |  | 
13 | Nc1ncnc2c1c(-c1cccc(O)c1)cn2C1CCN(CCO)CC1 | 1 | 2540 | 600 | 98 | > 10000 |  | 
14 | CN(C)C(=O)CN1CCC(n2cc(-c3cccc(O)c3)c3c(N)ncnc32)CC1 | 3 | 500 |  | 120 | > 10000 |  | 
15 | CCOC(=O)C[C@H]1C[C@@H](n2cc(-c3ccc(O)cc3)c3c(N)ncnc32)CN1 | 5 |  | 3300 |  |  |  | 
16 | CCOC(=O)C[C@H]1C[C@@H](n2cc(-c3ccccc3)c3c(N)ncnc32)CN1C(=O)OC(C)(C)C | 5000 |  |  |  |  |  | 
17 | CCOC(=O)C[C@H]1C[C@H](n2cc(-c3ccc(O)cc3)c3c(N)ncnc32)CN1 | 100 |  |  |  |  |  | 
18 | Nc1ncnc2c1c(-c1cccc(O)c1)cn2C1CCNC1 (stereo not drawn) | 6 | 1530 | 800 | 290 | > 10000 |  | 
19 | COCCNCCN1CCC(n2cc(-c3cccc(OC)c3)c3c(N)ncnc32)CC1 | 15 |  | 290 |  | > 10000 | 310 | 310
20 | COC(=O)CN1CCC(n2cc(-c3cccc(O)c3)c3c(N)ncnc32)CC1 | < 1 | 800 | 400 | 56 | > 10000 |  | 
21 | NC(=O)CN1CCC(n2cc(-c3cccc(O)c3)c3c(N)ncnc32)CC1 | 1 | 170 | 800 | 210 | > 10000 |  | 

Row | Compound | IC50 [1] [nM] | IC50 [2] [nM] | IC50 [3] [nM] | IC50 [4] [nM] | IC50 [5] [nM] | IC50 [6] [nM] | IC50 [7] [nM]
22 | COCCN(C)CCN1CCC(n2cc(-c3cccc(OC)c3)c3c(N)ncnc32)CC1 | 47 |  | 500 | 500 | > 10000 | 930 | 
23 | CCOC(=O)C[C@H]1C[C@H](n2cc(-c3ccccc3)c3c(N)ncnc32)CN1 | 600 |  |  |  |  |  | 
24 | COc1ccc(-c2cn(C3CCN(C(=O)OC(C)(C)C)C3)c3ncnc(N)c23)cc1 (stereo not drawn) | 400 |  | 400 |  |  |  | 
25 | COc1ccc(-c2cn(C3CCNC3)c3ncnc(N)c23)cc1 (stereo not drawn) | 300 |  |  |  |  |  | 
26 | CCOC(=O)C[C@H]1C[C@H](n2cc(-c3ccc(O)cc3)c3c(N)ncnc32)CN1C(=O)OC(C)(C)C | 35 |  | 700 |  |  |  | 
27 | CCOC(=O)C[C@H]1C[C@@H](n2cc(-c3ccccc3)c3c(N)ncnc32)CN1 | 15 |  | > 5000 |  |  |  | 
28 | CCOC(=O)C[C@H]1C[C@@H](n2cc(-c3ccc(O)cc3)c3c(N)ncnc32)CN1C(=O)OC(C)(C)C | 300 |  |  |  |  |  | 
29 | CC(C)(C)OC(=O)N1C[C@@H](n2cc(-c3ccccc3)c3c(N)ncnc32)C[C@@H]1CO | 130 |  |  |  |  |  | 
30 | CC(C)(C)OC(=O)N1CCC(n2cc(-c3ccccc3)c3c(N)ncnc32)C1 (stereo not drawn) | 180 | 8300 | > 5000 |  |  |  | 
31 | Nc1ncnc2c1c(-c1ccc(O)cc1)cn2C1CCNC1 (stereo not drawn) | 37 | 2670 | 2700 | 2800 |  |  | 
32 | COC(=O)CN1CCC(n2cc(-c3cccc(O)c3)c3c(N)ncnc32)C1 (stereo not drawn) | 3 | 740 | 700 | 54 | > 10000 |  | 
33 | COc1cccc(-c2cn(C3CCN(CC(=O)N(C)C)CC3)c3ncnc(N)c23)c1 | 67 | 750 | > 5000 |  |  |  | 
34 | COc1cccc(-c2cn(C3CCN(CC(N)=O)C3)c3ncnc(N)c23)c1 (stereo not drawn) | 38 | 440 | > 5000 | 700 |  |  | 
35 | COC(=O)CN1CCC(n2cc(-c3cccc(OC)c3)c3c(N)ncnc32)C1 (stereo not drawn) | 50 |  | > 5000 | 590 |  |  | 
36 | Nc1ncnc2c1c(-c1ccccc1)cn2[C@@H]1CN[C@@H](CO)C1 | 300 |  |  |  |  |  | 
37 | NC(=O)CN1CCC(n2cc(-c3cccc(O)c3)c3c(N)ncnc32)C1 (stereo not drawn) | 4 | 400 |  | 150 | > 10000 |  | 
38 | CC(C)(C)OC(=O)N1CCC(n2cc(-c3ccc(O)cc3)c3c(N)ncnc32)C1 (stereo not drawn) | 8 |  | 400 |  |  |  | 
39 | CC(C)(C)OC(=O)N1C[C@H](n2cc(-c3ccc(O)cc3)c3c(N)ncnc32)C[C@@H]1CO | 350 |  |  |  |  |  | 
40 | Nc1ncnc2c1c(-c1ccc(O)cc1)cn2[C@H]1CNC(CO)C1 (single isomer, unassigned) | 50 |  | > 5000 |  |  |  | 
41 | Nc1ncnc2c1c(-c1ccc(O)cc1)cn2C1CN[C@@H](CO)C1 (single isomer, unassigned) | 95 |  | > 5000 |  |  |  | 
